Laboratory results reported in ChEMBL document CHEMBL4699445, “Highly Potent Antiausterity Agents from Callistemon citrinus and Their Mechanism of Action against the PANC-1 Human Pancreatic Cancer Cell Line” (2020).
The source made the active and inactive calls. The rule behind the calls is not given here.

Experiments:
PANC-1 [1] = experiment: Anticancer activity against human PANC-1 cells assessed as reduction in cell viability in nutrient-deprived medium after 24 hrs by WST-8 assay; type: functional
PANC-1 [2] = experiment: Induction of cell morphological changes in human PANC-1 cells assessed as dead cells at 0.1 uM after 24 hrs in nutrient-deprived medium by ethidium bromide-acridine orange staining based fluorescence microscopic analysis; type: functional
PANC-1 [3] = experiment: Inhibition of cell migration in human PANC1 cells assessed as open wound area at 5 uM cultured in nutrient rich DMEM medium measured after 12 hrs by quantitative real-time imaging based wound healing assay (reference value: 57.5%); type: functional; parameters: scale not given: the % may be the effect or the level left
PANC-1 [4] = experiment: Inhibition of cell migration in human PANC1 cells assessed as open wound area at 5 uM cultured in nutrient rich DMEM medium measured after 24 hrs by quantitative real-time imaging based wound healing assay (reference value: 15%); type: functional; parameters: scale not given: the % may be the effect or the level left
PANC-1 [5] = experiment: Inhibition of colony formation in human PANC-1 cells in nutrient rich DMEM medium measured after 24 hrs by crystal violet staining based assay; type: functional, cell-based; details: dose microM 2.5-10, time 24.0 hrs
PANC-1 [6] = experiment: Inhibition of colony formation in human PANC-1 cells in nutrient rich DMEM medium at 2.5 uM measured after 24 hrs by crystal violet staining based assay (reference value: 33%); type: functional
PANC-1 [7] = experiment: Inhibition of colony formation in human PANC-1 cells in nutrient rich DMEM medium at 5 uM measured after 24 hrs by crystal violet staining based assay (reference value: 33%); type: functional
PANC-1 [8] = experiment: Inhibition of colony formation in human PANC-1 cells in nutrient rich DMEM medium at 10 uM measured after 24 hrs by crystal violet staining based assay (reference value: 33%); type: functional
PANC-1 [9] = experiment: Inhibition of PI3K/Akt/mTOR signaling in human PANC-1 cells assessed as decrease in PI3K p110alpha level measured after 3 to 6 hrs by Western blot analysis; type: cell-based; details: dose microM 1-10, time hrs 3-6
PANC-1 [10] = experiment: Inhibition of PI3K/Akt/mTOR signaling in human PANC-1 cells assessed as decrease in PI3K p110beta level measured after 3 to 6 hrs by Western blot analysis; type: cell-based; details: dose 1-10 µM, time 3-6 hrs
PANC-1 [11] = experiment: Inhibition of PI3K/Akt/mTOR signaling in human PANC-1 cells assessed as decrease in Akt level measured after 3 to 6 hrs by Western blot analysis; type: cell-based; details: dose 1-10 µM, time 3-6 hrs
PANC-1 [12] = experiment: Inhibition of PI3K/Akt/mTOR signaling in human PANC-1 cells assessed as decrease in pAkt at S473 level measured after 3 to 6 hrs by Western blot analysis; type: cell-based; details: dose 1-10 µM, time 3-6 hrs
PANC-1 [13] = experiment: Inhibition of PI3K/Akt/mTOR signaling in human PANC-1 cells assessed as decrease in mTOR level measured after 3 to 6 hrs by Western blot analysis; type: cell-based; details: dose 1-10 µM, time 3-6 hrs
PANC-1 [14] = experiment: Inhibition of PI3K/Akt/mTOR signaling in human PANC-1 cells assessed as decrease in pmTOR S2481 level measured after 3 to 6 hrs by Western blot analysis; type: cell-based; details: dose 1-10 µM, time 3-6 hrs
PANC-1 [15] = experiment: Inhibition of PI3K/Akt/mTOR signaling in human PANC-1 cells assessed as decrease in PI3K p110alpha level at 1 to 10 uM by Western blot analysis; type: cell-based; details: dose 1-10 µM, time 3-6 hrs, TDE = time-dependent effect
PANC-1 [16] = experiment: Inhibition of PI3K/Akt/mTOR signaling in human PANC-1 cells assessed as decrease in PI3K p110beta level at 1 to 10 uM by Western blot analysis; type: cell-based; details: dose 1-10 µM, time 3-6 hrs, TDE = time-dependent effect
PANC-1 [17] = experiment: Inhibition of PI3K/Akt/mTOR signaling in human PANC-1 cells assessed as decrease in Akt level at 1 to 10 uM by Western blot analysis; type: cell-based; details: dose 1-10 µM, time 3-6 hrs, TDE = time-dependent effect
PANC-1 [18] = experiment: Inhibition of PI3K/Akt/mTOR signaling in human PANC-1 cells assessed as decrease in pAkt at S473 level at 1 to 10 uM by Western blot analysis; type: cell-based; details: dose 1-10 µM, time 3-6 hrs, TDE = time-dependent effect
PANC-1 [19] = experiment: Inhibition of PI3K/Akt/mTOR signaling in human PANC-1 cells assessed as decrease in mTOR level at 1 to 10 uM by Western blot analysis; type: cell-based; details: dose 1-10 µM, time 3-6 hrs, TDE = time-dependent effect
PANC-1 [20] = experiment: Inhibition of PI3K/Akt/mTOR signaling in human PANC-1 cells assessed as decrease in pmTOR S2481 level at 1 to 10 uM by Western blot analysis; type: cell-based; details: dose 1-10 µM, time 3-6 hrs, TDE = time-dependent effect
PANC-1 [21] = experiment: Inhibition of PI3K/Akt/mTOR signaling in human PANC-1 cells assessed as decrease in LC3-II level at 1 to 10 uM measured after 3 to 6 hrs by Western blot analysis; type: cell-based; details: dose 1-10 µM, time 3-6 hrs

CC(C)CC(=O)c1c(O)c2c(c3c1OC1(O)C(C(=O)C(C)(C)C(=O)C1(C)C)[C@@H]3C(C)C)OC1=C(C(=O)C(C)(C)C(=O)C1(C)C)[C@@H]2C(C)C (some centres not stated)
PC50 (PANC-1 [1]): 0.6 µM

CC(C)CC(=O)c1c(O)c([C@H](C2=C(O)C(C)(C)C(=O)C(C)(C)C2=O)C(C)C)c(O)c2c1O[C@]1(C)C=C[C@@H](C(C)C)C[C@H]21
PC50 (PANC-1 [1]): 0.065 µM | Activity (PANC-1 [2]): Active | Activity (PANC-1 [3]): 95% | Activity (PANC-1 [4]): 92% | inhibition (PANC-1 [5]): Dose-dependent effect | inhibition at 2.5 µM (PANC-1 [6]): 41% | inhibition at 5 µM (PANC-1 [7]): 63% | inhibition at 10 µM (PANC-1 [8]): 80% | inhibition (PANC-1 [9]): Dose-dependent effect | inhibition (PANC-1 [10]): Dose-dependent effect | inhibition (PANC-1 [11]): Dose-dependent effect | inhibition (PANC-1 [12]): Dose-dependent effect | inhibition (PANC-1 [13]): Dose-dependent effect | inhibition (PANC-1 [14]): Dose-dependent effect | inhibition (PANC-1 [15]): Tde | inhibition (PANC-1 [16]): Tde | inhibition (PANC-1 [17]): Tde | inhibition (PANC-1 [18]): Tde | inhibition (PANC-1 [19]): Tde | inhibition (PANC-1 [20]): Tde | inhibition (PANC-1 [21]): Active

COc1ccc(-c2cc(=O)c3c(O)c(C)c(OC)c(C)c3o2)cc1
PC50 (PANC-1 [1]): 1 µM

CC(C)[C@@H]1C=C[C@@]2(C)OC3=C(C(=O)C(C)(C)C(=O)C3(C)C)[C@@H](C(C)C)[C@H]2C1
PC50 (PANC-1 [1]): 5 µM

CC(C)[C@@H]1C=C[C@@]2(C)OC3=C(C(=O)C(C)(C)C(=O)C3(C)C)[C@H](C(C)C)[C@H]2C1
PC50 (PANC-1 [1]): 11.7 µM

C=C1CC[C@H]2[C@@H](C(C)C)C3=C(O[C@]2(C)CC[C@@H]2[C@@H]1CC2(C)C)C(C)(C)C(=O)C(C)(C)C3=O
PC50 (PANC-1 [1]): 28.1 µM

CCC(C)[C@H](C1=C(O)C(C)(C)C(=O)C(C)(C)C1=O)c1c(O)c(C(=O)CC(C)C)c(O)c2c1O[C@]1(C)C=C[C@@H](C(C)C)C[C@H]21 (some centres not stated)
PC50 (PANC-1 [1]): 0.01 µM | Activity (PANC-1 [2]): Active

COc1ccc(-c2cc(=O)c3c(O)c(C)c(OC)cc3o2)cc1
PC50 (PANC-1 [1]): 6.1 µM

CC(C)=CCCC1=CCC2(C(=O)C(C)(C)C(=O)C(C)(C)C2=O)[C@@H](C(C)C)C1
PC50 (PANC-1 [1]): 0.02 µM

CC1(C)C=C2C(=O)C(C)(C)C(=O)C(C)(C)C2(O)OO1 (configuration not stated) [ENDOPEROXIDE HORMONE G3]
PC50 (PANC-1 [1]): 32.3 µM

COc1cc([C@H]2c3cc(O)c(OC)cc3C[C@H](C)[C@@H]2C)ccc1O
PC50 (PANC-1 [1]): 88.3 µM

CC(C)[C@@H]1C[C@]2(CC[C@H]3C[C@@H]2C3(C)C)OC2=C1C(=O)C(C)(C)C(=O)C2(C)C
PC50 (PANC-1 [1]): 8 µM

COc1cc(C[C@H]2C(=O)OC[C@@H]2Cc2ccc(OC)c(OC)c2)ccc1O [ARCTIGENIN]
PC50 (PANC-1 [1]): 0.7 µM

CC(C)[C@@H]1C[C@]2(CC[C@]3(C(C)C)C[C@H]23)OC2=C1C(=O)C(C)(C)C(=O)C2(C)C
PC50 (PANC-1 [1]): 3.9 µM

Oc1cc(O)c2c(c1)O[C@H](c1ccc(O)c(O)c1)[C@@H](O)C2 [CIANIDANOL]
PC50 (PANC-1 [1]): >100 µM

CC(C)[C@H]1C[C@]2(CC[C@]3(C(C)C)C[C@H]23)OC2=C1C(=O)C(C)(C)C(=O)C2(C)C
PC50 (PANC-1 [1]): 10 µM
